This is an account of results in patent publication US11980609B2, “LPA receptor antagonists and uses thereof” (Gilead Sciences, Inc., priority 2021, dated 2024).

Where only a bound is given, the exact number is not on record here.

T1 sequence (Q92633 whole entry): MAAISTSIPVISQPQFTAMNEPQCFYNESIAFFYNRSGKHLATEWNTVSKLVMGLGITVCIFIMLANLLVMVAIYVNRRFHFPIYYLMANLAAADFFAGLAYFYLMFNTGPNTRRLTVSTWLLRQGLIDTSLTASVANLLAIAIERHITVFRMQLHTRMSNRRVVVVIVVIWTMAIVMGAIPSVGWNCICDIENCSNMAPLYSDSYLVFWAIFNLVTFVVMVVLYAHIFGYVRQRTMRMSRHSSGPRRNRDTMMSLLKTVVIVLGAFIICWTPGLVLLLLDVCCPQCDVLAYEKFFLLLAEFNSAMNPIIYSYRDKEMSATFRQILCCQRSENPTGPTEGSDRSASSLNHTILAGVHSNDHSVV

The test has as its target T1, human LPAR1 (Homo sapiens, UniProt Q92633).
T1 construct: host or cells: CHO-K1
As to the kind of experiment: LPAR1 intracellular calcium mobilization assay (antagonist mode). The test is classed as cell-based. The conditions noted are these: CHO-K1 EDG2 cells expressing human LPAR1; 60 min pre-incubation with compound (0.5 nM to 10 μM), then LPA 18:2 challenge; FLIPR Tetra calcium signal. As for the experimental part:
In vitro LPAR1 activity was measured in an intracellular calcium mobilization assay.
CHO-K1 EDG2 cells (DiscoverX cat #93-0644C2) expressing human LPAR1 (NM_001401.3) were seeded in a total volume of 25 μL of Dulbecco's Modification of Eagle's Medium (DMEM) with 10% Fetal Bovine Serum, 1× PenStrepGlutamine, 300 μg/ml Hygromycin, and 800 μg/ml G418 into 384-well tissue culture plate (Grenier #781091) at 15,000 cells/well and incubated at 37° C. overnight. Prior to testing, 25 μL Calcium Loading Dye Component A (FLIPR Calcium 6 Assay Kit Molecular Device #R8190) and 2.5 mM Probenecid (Invitrogen #P36400, prepared fresh) in Hank's Balanced Salt Solution (Corning #21-023-CV), 20 mM HEPES (Corning #25-060-CI), 0.1% Bovine Serum Albumin (Sigma-Aldrich #A7906-500G) was add to the cells for 60 minutes at 37° C.
Agonist dose curves of LPA 18:2 (Avanti Polar Lipids cat #857138, 0.5 nM to 10 μM) were recorded to determine the LPA 18:2 EC80 for subsequent antagonist assays. For agonist dose curves, cells were removed from the incubator 2 hours after dye loading and transferred to the FLIPR Tetra instrument (Molecular Devices, San Jose, CA). Calcium mobilization was monitored for 5 min and 10 μL 6×LPA in HBSS/20 mM Hepes/0.1% bovine serum albumin (BSA) was added to the cells 5 seconds into the assay.
To determine the LPAR1 antagonist activity of test compounds, cells were pre-incubated with test compound at a dose range of 0.5 nM to 10 μM, followed by LPA at […] concentration (100 nM). After dye loading, cells were removed from the incubator and 0.3 μL of 200× antagonist was added. Cells were incubated for 60 minutes at 37° C. Antagonist activity was measured on a FLIPR Tetra. Calcium mobilization was monitored for 3.5 minutes and 10 μL 6×EC80 LPA in HBSS, 20 mM HEPES, and 0.1% BSA was added to the cells 5 seconds into the assay. Signal amplitude (Maximum minus minimum) values were plotted against log10 of antagonist concentration using Dose Response Tool (Gilead Sciences Inc.) to determine EC50.
To assess the antagonistic potential of exemplified compounds EC50 values were determined for Compounds 1 to 55 in the LPAR1 calcium mobilization assay. The compound numbers correspond to the compound numbers in Examples 1 to 35. N/A=not available.
For orientation: Calcium assays in cells follow changes in intracellular calcium, usually with a dye or a luminescent sensor.
Usually EC50 stands for the concentration at which the effect is half-maximal. As for `C[C@@H](OC(=O)Nc1c(-c2ncc(OS(C)(=O)=O)cc2F)cnn1C)c1cccnc1Cl` [Compound 12, (R)-6-(5-(((1-(2-chloropyridin-3-yl)ethoxy)carbonyl)amino)-1-methyl-1H-pyrazol-4-yl)-5-fluoropyridin-3-yl methanesulfonate], the EC50 stood at 31.1 nM.
`C[C@@H](OC(=O)Nc1c(-c2ncc(NC(=O)[C@@H]3C[C@H]3C(F)(F)F)cn2)cnn1C)c1cccnc1Cl` [Compound 32, (R)-1-(2-chloropyridin-3-yl)ethyl (1-methyl-4-(5-((1R,2R)-2-(trifluoromethyl)cyclopropane-1-carboxamido)pyrimidin-2-yl)-1H-pyrazol-5-yl)carbamate]: the EC50 is under 4.6 nM.
On to `C[C@@H](OC(=O)Nc1c(-c2ncc(NC(=O)C3(C#N)CC3)cn2)cnn1C)c1cc(F)cnc1F` [Compound 21, (R)-1-(2,5-difluoropyridin-3-yl)ethyl (4-(5-(1-cyanocyclopropane-1-carboxamido)pyrimidin-2-yl)-1-methyl-1H-pyrazol-5-yl)carbamate], for which the EC50 worked out at 81.5 nM.
For `CCS(=O)(=O)Oc1cnc(-c2cnn(C)c2NC(=O)O[C@H](C)c2cc(F)cnc2Cl)nc1` [Compound 5, (R)-2-(5-(((1-(2-chloro-5-fluoropyridin-3-yl)ethoxy)carbonyl)amino)-1-methyl-1H-pyrazol-4-yl)pyrimidin-5-yl ethanesulfonate] the value was 51.5 nM.
`C[C@@H](OC(=O)Nc1c(-c2ncc(NC(=O)C34CC(F)(C3)C4)cn2)cnn1C)c1cc(F)cnc1F` [Compound 30, (R)-1-(2,5-difluoropyridin-3-yl)ethyl (4-(5-(3-fluorobicyclo[1.1.1]pentane-1-carboxamido)pyrimidin-2-yl)-1-methyl-1H-pyrazol-5-yl)carbamate]: the EC50 turned out to be 36.2 nM.
Turning to `C[C@@H](OC(=O)Nc1c(-c2ncc(OS(C)(=O)=O)cc2F)cnn1C)c1cc(F)cnc1F` [Compound 11, (R)-6-(5-(((1-(2,5-difluoropyridin-3-yl)ethoxy)carbonyl)amino)-1-methyl-1H-pyrazol-4-yl)-5-fluoropyridin-3-yl methanesulfonate], the 50% effective concentration (EC50) was 74 nM.
Take `C[C@@H](OC(=O)Nc1c(-c2ncc(NC(=O)c3cnc(C(F)F)nc3)cc2F)cnn1C)c1cc(F)cnc1F` [Compound 18, (R)-1-(2,5-difluoropyridin-3-yl)ethyl (4-(5-(2-(difluoromethyl)pyrimidine-5-carboxamido)-3-fluoropyridin-2-yl)-1-methyl-1H-pyrazol-5-yl)carbamate]: the EC50 came to 36.1 nM.
Turning to `C[C@@H](OC(=O)Nc1c(-c2ncc(NC(=O)c3ccc(Cl)nc3)cn2)cnn1C)c1cc(F)cnc1F` [Compound 26, (R)-1-(2,5-difluoropyridin-3-yl)ethyl (4-(5-(6-chloronicotinamido)pyrimidin-2-yl)-1-methyl-1H-pyrazol-5-yl)carbamate], the EC50 turned out to be 20.6 nM.
In the case of `C[C@@H](OC(=O)Nc1c(-c2ccc(NS(C)(=O)=O)cn2)cnn1C)c1cccnc1Cl` [Compound 20, (R)-1-(2-chloropyridin-3-yl)ethyl (1-methyl-4-(5-(methylsulfonamido)pyridin-2-yl)-1H-pyrazol-5-yl)carbamate], the EC50 worked out at 216 nM.
As to `C[C@@H](OC(=O)Nc1c(-c2ncc(C(O)C(F)(F)F)cn2)cnn1C)c1cc(F)cnc1F` (stereo partly drawn) [Compound 53, (R)-1-(2,5-difluoropyridin-3-yl)ethyl (1-methyl-4-(5-(2,2,2-trifluoro-1-hydroxyethyl)pyrimidin-2-yl)-1H-pyrazol-5-yl)carbamate], the EC50 turned out to be 745 nM.
On to `Cc1nc(-c2cnn(C)c2NC(=O)O[C@H](C)c2cccnc2Cl)ncc1OS(C)(=O)=O` [Compound 3, (R)-2-(5-(((1-(2-chloropyridin-3-yl)ethoxy)carbonyl)amino)-1-methyl-1H-pyrazol-4-yl)-4-methylpyrimidin-5-yl methanesulfonate], for which the EC50 worked out at 39.6 nM.
Consider `COC(=O)Nc1ccc(-c2cnn(C)c2NC(=O)O[C@H](C)c2cccc(F)c2)nc1C` [Compound 14, (R)-1-(3-fluorophenyl)ethyl (4-(5-((methoxycarbonyl)amino)-6-methylpyridin-2-yl)-1-methyl-1H-pyrazol-5-yl)carbamate], for which the EC50 turned out to be 4180 nM.
In the case of `C[C@@H](OC(=O)Nc1c(-c2ncc(C(F)F)cn2)cnn1C)c1cc(F)cnc1F` [Compound 54, (R)-1-(2,5-difluoropyridin-3-yl)ethyl (4-(5-(difluoromethyl)pyrimidin-2-yl)-1-methyl-1H-pyrazol-5-yl)carbamate], the EC50 stood at 2880 nM.
With `C[C@@H](OC(=O)Nc1c(-c2ccc(NS(C)(=O)=O)cc2)cnn1C)c1ccccc1Cl` [Compound 1, (R)-1-(2-chlorophenyl)ethyl (1-methyl-4-(4-(methylsulfonamido)phenyl)-1H-pyrazol-5-yl)carbamate], the EC50 came to 11.7 nM.
On to `C[C@@H](OC(=O)Nc1c(-c2ncc(NC(=O)c3cnc(C(F)F)nc3)cn2)cnn1C)c1cc(F)cnc1F` [Compound 24, (R)-1-(2,5-difluoropyridin-3-yl)ethyl (4-(5-(2-(difluoromethyl)pyrimidine-5-carboxamido)pyrimidin-2-yl)-1-methyl-1H-pyrazol-5-yl)carbamate], for which the EC50 is 26.8 nM.
For the molecule `C[C@@H](OC(=O)Nc1c(-c2ccc(C(=O)NC34CC(F)(C3)C4)cn2)cnn1C)c1cccnc1Cl` [Compound 50], the 50% effective concentration (EC50) turned out to be 869 nM.
The same measure for `Cc1nc(-c2cnn(C)c2NC(=O)O[C@H](C)c2cccc(F)c2)ccc1NS(C)(=O)=O` [Compound 13, (R)-1-(3-fluorophenyl)ethyl (1-methyl-4-(6-methyl-5-(methylsulfonamido)pyridin-2-yl)-1H-pyrazol-5-yl)carbamate]: 1250 nM; for `C[C@@H](OC(=O)Nc1c(-c2ncc(NC(=O)C3(C#N)CC3)cn2)cnn1C)c1cccnc1F` [Compound 42, (R)-1-(2-fluoropyridin-3-yl)ethyl (4-(5-(1-cyanocyclopropane-1-carboxamido)pyrimidin-2-yl)-1-methyl-1H-pyrazol-5-yl)carbamate]: 54.9 nM.
With `C[C@@H](OC(=O)Nc1c(-c2ncc(NC(=O)[C@@H]3C[C@H]3C(F)F)cn2)cnn1C)c1cc(F)cnc1F` [Compound 34, (R)-1-(2,5-difluoropyridin-3-yl)ethyl (4-(5-((1R,2R)-2-(difluoromethyl)cyclopropane-1-carboxamido)pyrimidin-2-yl)-1-methyl-1H-pyrazol-5-yl)carbamate], the EC50 is 11.6 nM.
`C[C@@H](OC(=O)Nc1c(-c2ncc(NC(=O)C3(C)CC(F)(F)C3)cn2)cnn1C)c1cccnc1F` [Compound 41, (R)-1-(2-fluoropyridin-3-yl)ethyl (4-(5-(3,3-difluoro-1-methylcyclobutane-1-carboxamido)pyrimidin-2-yl)-1-methyl-1H-pyrazol-5-yl)carbamate]: the EC50 turned out to be 20.7 nM.
For `C[C@@H](OC(=O)Nc1c(-c2ccc3c(n2)OCC(=O)N3)cnn1C)c1cc(F)cnc1Cl` [Compound 15, (R)-1-(2-chloro-5-fluoropyridin-3-yl)ethyl (1-methyl-4-(2-oxo-2,3-dihydro-1H-pyrido[2,3-b][1,4]oxazin-6-yl)-1H-pyrazol-5-yl)carbamate], the EC50 was 25.7 nM.
Consider `C[C@@H](OC(=O)Nc1c(-c2ncc(NC(=O)C3(C#N)CC3)cc2F)cnn1C)c1cc(F)cnc1F` [Compound 17, (R)-1-(2,5-difluoropyridin-3-yl)ethyl (4-(5-(1-cyanocyclopropane-1-carboxamido)-3-fluoropyridin-2-yl)-1-methyl-1H-pyrazol-5-yl)carbamate], for which the EC50 was 19.7 nM.
Turning to `C[C@@H](OC(=O)Nc1c(-c2ncc(NC(=O)[C@@H]3C[C@H]3C(F)(F)F)cn2)cnn1C)c1cc(F)cnc1F` [Compound 29, (R)-1-(2,5-difluoropyridin-3-yl)ethyl (1-methyl-4-(5-((1R,2R)-2-(trifluoromethyl)cyclopropane-1-carboxamido)pyrimidin-2-yl)-1H-pyrazol-5-yl)carbamate], the 50% effective concentration (EC50) is under 4.6 nM.
For `C[C@@H](OC(=O)Nc1c(-c2ncc(NS(C)(=O)=O)cn2)cnn1C)c1ccccc1F` [Compound 51, (R)-1-(2-fluorophenyl)ethyl (1-methyl-4-(5-(methylsulfonamido)pyrimidin-2-yl)-1H-pyrazol-5-yl)carbamate] the value was 36.4 nM.
